From PubChem BioAssay (NCI)
Where “and” joins values, the source holds several entries; their conditions need not be identical. Equal entries are not always repeated.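 Interpolation was linear, between the two tested concentrations surrounding the appropriate level; five concentrations were tested over 48 hours in 96-well plates. GI50 = concentration required for 50% inhibition of growth. TGI denotes the concentration required for complete inhibition of growth.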 *1 amine or outer side, *2 acyl side, *3 side chain or, on linkers, in order; H or OH if unused. Where a SMILES comes first, the peptide text is derived from it. Bridges are numbered along the chain shown (N, C = ends). [ ]: non-standard residue; d: D form. ξ: configuration not given here. X4 = CCC(C)C(N[*:1])C(O)CC(=O)O[C@H](C(=O)C(C)C(=O)[*:2])C(C)C; NMeY = CN[C@@H](Cc1ccc(O)cc1)C(=O)O; ξNMeL = CNC(CC(C)C)C(=O)O; ξT = CC(O)C(N)C(=O)O

Key:
Test in all cases: growth of human tumour cells (NCI), 48 h
[1] = tested on: 786-0 renal
[2] = tested on: A549 NSCLC
[3] = tested on: EKVX NSCLC
[4] = tested on: HOP-92 NSCLC
[5] = tested on: KM12 colon
[6] = tested on: SK-MEL-5 melanoma
[7] = tested on: SNB-75 CNS
[8] = tested on: U251 CNS
[9] = tested on: UACC-257 melanoma
[10] = tested on: UACC-62 melanoma

For O=C(Nc1ccccc1C(F)(F)F)c1cccc(NC2=C(Cl)C(=O)N(Cc3ccccc3)C2=O)c1, the GI50 [1] was 12.4 µM, the TGI [1] was > 40.1 µM and the GI50 [2] was 28.2 µM. For the same compound, the TGI [2] was > 77.8 µM, the GI50 [3] was 13.2 µM and the TGI [3] was 52.6 µM. The GI50 [4] was 26.3 µM, the TGI [4] was > 100 µM and the GI50 [5] was 19.2 µM. For the same compound, the TGI [5] was > 85.2 µM, the TGI [6] was 3.04 µM and the GI50 [7] was 30.7 µM. The TGI [7] was > 57.6 µM, the GI50 [8] was 6.68 µM and the TGI [8] was 41.7 µM. It also gave a GI50 [9] of 11.2 µM, a TGI [9] of 70.1 µM and a GI50 [10] of 9.46 µM. It also gave a TGI [10] of 52.7 µM.

Compound COc1cc2nc(-c3ccc(C(F)(F)F)cc3)cc(OCCCN3CCOCC3)c2cc1OC has a GI50 [1] of 1.76 µM, a TGI [1] of 4.47 µM and a GI50 [2] of 1.04 µM. It also gave a TGI [2] of 20 µM, a GI50 [3] of 1.61 µM and a TGI [3] of 19.6 µM. The GI50 [4] was 1 µM, the TGI [4] was 4.66 µM and the GI50 [5] was 3.42 µM. It also gave a TGI [5] of 22 µM, a GI50 [6] of 0.288 µM and a TGI [6] of 0.997 µM. For the same compound, the GI50 [7] was 2.46 µM, the TGI [7] was 9.51 µM and the GI50 [8] was 1.4 µM. The TGI [8] was 14.3 µM, the GI50 [9] was 1.67 µM and the TGI [9] was 5.68 µM. For the same compound, the GI50 [10] was 0.628 µM and the TGI [10] was 3.9 µM.

In the case of CC(C)c1ccc(Cc2cnc(NC(=O)c3cc(Br)cs3)s2)cc1, the GI50 [1] is reported as 4.55 µM, the TGI [1] is reported as > 100 µM and the GI50 [2] is reported as 3.65 µM. The TGI [2] was > 100 µM, the GI50 [3] was 4 µM and the TGI [3] was > 100 µM. It also gave a GI50 [4] of 5.51 µM, a TGI [4] of 87.5 µM and a GI50 [5] of 2.12 µM. For the same compound, the TGI [5] was > 100 µM, the GI50 [6] was 1.9 µM and the TGI [6] was > 100 µM. For the same compound, the GI50 [7] was 1.05 µM, the TGI [7] was 7.76 µM and the GI50 [8] was 3.42 µM. For the same compound, the TGI [8] was > 100 µM, the GI50 [9] was 7.6 µM and the TGI [9] was > 100 µM. The GI50 [10] was 1.38 µM and the TGI [10] was > 100 µM.

For CCCCCCC/C=C/[C@H]1O[C@]23C(=O)C[C@@]4(C[C@@H](OC5OC(CO)C(O)C(O)C5O)C[C@@H]4[C@H]2C=C1C)OC3=O (stereo partly drawn), the GI50 [1] was 4.9 µM, the TGI [1] was 10.1 µM and the GI50 [2] was 8.48 µM. The TGI [2] was > 33.3 µM, the GI50 [3] was 6.72 µM and the TGI [3] was 17.8 µM. It also gave a GI50 [4] of 3.77 µM, a TGI [4] of 11.6 µM and a GI50 [5] of 4.66 µM. It also gave a TGI [5] of 11.6 µM, a GI50 [6] of 4.88 µM and a TGI [6] of 9.37 µM. For the same compound, the GI50 [7] was 2.84 µM, the TGI [7] was 7.17 µM and the GI50 [8] was 3.55 µM. The TGI [8] was 7.63 µM, the GI50 [9] was 5.21 µM and the TGI [9] was 12.4 µM. For the same compound, the GI50 [10] was 4.47 µM and the TGI [10] was 10.9 µM.

In the case of CCC(C)C1NC(=O)C(NC(=O)C(CC(C)C)N(C)C(=O)[C@@H]2CCCN2)C(C)OC(=O)[C@H](Cc2ccc(OC)cc2)N(C)C(=O)[C@@H]2CCCN2C(=O)[C@H](CC(C)C)NC(=O)C(C)C(=O)[C@H](C(C)C)OC(=O)CC1O (stereo partly drawn) (H-P[ξNMeL][ξT][X4]LP[NMeY](Me); ester 3-C), the TGI [1] is reported as 0.0115 µM and 0.0174 µM, the TGI [2] is reported as 0.0246 µM and 0.0289 µM and the TGI [3] is reported as 0.0474 µM. The TGI [4] was 0.0187 µM, the TGI [6] was 0.00748 µM and the TGI [7] was 0.00813 µM and 0.0191 µM. For the same compound, the TGI [8] was 0.0114 µM, the TGI [9] was 0.00814 µM and 0.0465 µM and the TGI [10] was 0.00147 µM.

CC1CC(c2ccccc2)=Nc2ccccc2S1(=O)=O (stereo not drawn) gave a TGI [1] of 30.9 µM, a TGI [2] of 55.6 µM and a TGI [3] of 39.6 µM. The TGI [4] was 48.7 µM, the TGI [5] was 31.3 µM and the TGI [6] was 32.5 µM. For the same compound, the TGI [7] was 35.9 µM, the TGI [8] was 31.9 µM and the TGI [9] was 23.8 µM. For the same compound, the TGI [10] was 55.7 µM.

In the case of Nc1nc(-c2cccc([N+](=O)[O-])c2)c(Br)c(=O)[nH]1, the TGI [1] is reported as > 100 µM, the TGI [2] is reported as > 71.4 µM and the TGI [3] is reported as > 100 µM. The TGI [4] was > 100 µM, the TGI [5] was > 100 µM and the TGI [6] was > 91.1 µM. The TGI [7] was > 100 µM, the TGI [8] was > 100 µM and the TGI [9] was > 71.4 µM. For the same compound, the TGI [10] was > 69.7 µM.

In the case of O=c1oc2ccccc2c(O)c1/C=N\c1nc(-c2ccccc2)cs1, the TGI [1] is reported as 40.2 µM, the TGI [2] is reported as > 100 µM and the TGI [3] is reported as 42.6 µM. It also gave a TGI [4] of 25.2 µM, a TGI [5] of 39.1 µM and a TGI [6] of 9.65 µM. The TGI [7] was 21.6 µM, the TGI [8] was 24.9 µM and the TGI [9] was 23 µM. It also gave a TGI [10] of 19.3 µM.

With COc1cc(-c2cnn(C)c2)ccc1Nc1ncc2ccnc(N[C@@H](C)C(C)(C)C)c2n1 the GI50 [1] was > 31.6 µM, the TGI [1] was > 100 µM and the GI50 [2] was > 45.5 µM. For the same compound, the TGI [2] was > 100 µM, the GI50 [3] was > 100 µM and the TGI [3] was > 100 µM. For the same compound, the GI50 [4] was > 56.7 µM, the TGI [4] was > 100 µM and the GI50 [5] was 1.51 µM. For the same compound, the TGI [5] was > 100 µM, the GI50 [6] was > 79 µM and the TGI [6] was > 100 µM. The GI50 [7] was 3.26 µM, the TGI [7] was > 100 µM and the GI50 [8] was > 55.8 µM. For the same compound, the TGI [8] was > 100 µM, the GI50 [9] was > 100 µM and the TGI [9] was > 100 µM. The GI50 [10] was > 100 µM and the TGI [10] was > 100 µM.

For CC1(C)C2CC(c3ccncc3)ON2C(C)(C)N1O (stereo not drawn), the TGI [1] was > 100 µM, the TGI [2] was > 100 µM and the TGI [3] was > 100 µM. For the same compound, the TGI [4] was > 100 µM, the TGI [5] was > 100 µM and the TGI [6] was > 100 µM. The TGI [7] was > 100 µM, the TGI [8] was > 100 µM and the TGI [9] was > 100 µM. For the same compound, the TGI [10] was > 100 µM.

In the case of CCN(CC)c1ccc(N=Nc2ccc(-c3nc4cccnc4o3)cc2)cc1, the TGI [1] is reported as > 100 µM, the TGI [2] is reported as > 100 µM and the TGI [3] is reported as > 100 µM. The TGI [4] was > 100 µM, the TGI [5] was > 100 µM and the TGI [6] was > 100 µM. The TGI [7] was > 100 µM, the TGI [8] was > 100 µM and the TGI [9] was > 100 µM. For the same compound, the TGI [10] was > 100 µM.

With CCCCNc1nc(NC(C)(C)C)nc(NC(C)(C)C)n1 the GI50 [1] was 30.7 µM, the TGI [1] was > 100 µM and the GI50 [2] was 4.41 µM. The TGI [2] was > 100 µM, the GI50 [3] was 3.12 µM and the TGI [3] was > 100 µM. The GI50 [4] was 1.38 µM, the TGI [4] was 24.2 µM and the GI50 [5] was 4.87 µM. The TGI [5] was > 100 µM, the GI50 [6] was 3.49 µM and the TGI [6] was 17.7 µM. It also gave a GI50 [7] of 12.8 µM, a TGI [7] of 68.7 µM and a GI50 [8] of 5.92 µM. The TGI [8] was 36.7 µM, the GI50 [9] was 81.3 µM and the TGI [9] was > 100 µM. The GI50 [10] was 3.25 µM and the TGI [10] was > 100 µM.

Compound O=C1C=C(c2c(O)ccc3ccccc23)c2ccccc2C1=O has a TGI [1] of 4.89 µM, a TGI [2] of 25.7 µM and a TGI [3] of 11.9 µM. For the same compound, the TGI [4] was 5.09 µM, the TGI [5] was 11.8 µM and the TGI [6] was 7.42 µM. The TGI [7] was 12.9 µM, the TGI [8] was 5.13 µM and the TGI [9] was 6.49 µM. The TGI [10] was 5.48 µM.

S=C(Nc1ccc(-c2nc3ccccc3[nH]2)cc1)NC1CCCCC1 showed a GI50 [1] of 33.2 µM, a GI50 [2] of 40.3 µM and a GI50 [3] of 28.5 µM. For the same compound, the GI50 [4] was 35.3 µM, the GI50 [5] was 22.5 µM and the TGI [5] was 63.6 µM. For the same compound, the GI50 [7] was 25.1 µM, the TGI [7] was > 100 µM and the GI50 [8] was 19.7 µM. The TGI [8] was 45.2 µM, the GI50 [9] was 26.6 µM and the TGI [9] was 57.1 µM. The GI50 [10] was 15.3 µM.

For CN(C)CCNc1nc2ccccc2c2c1c1c(n2Cc2ccccc2)-c2ccccc2C1=O, the GI50 [1] was 19.2 µM, the TGI [1] was 38.3 µM and the GI50 [2] was 14.6 µM. It also gave a TGI [2] of 46.6 µM, a GI50 [3] of 16.3 µM and a TGI [3] of 32.3 µM. It also gave a GI50 [4] of 6.19 µM, a TGI [4] of 21.2 µM and a GI50 [6] of 15.8 µM. The TGI [6] was 30.9 µM, the GI50 [7] was 14.4 µM and the TGI [7] was 28.9 µM. The GI50 [8] was 14.4 µM, the TGI [8] was 29.2 µM and the GI50 [9] was 19.9 µM. The TGI [9] was 42.6 µM, the GI50 [10] was 18.3 µM and the TGI [10] was 34.3 µM.

For CN1CC(c2ccccc2)N(CCCCN2CC(c3ccccc3)N(C)CC2c2ccccc2)CC1c1ccccc1 (stereo not drawn), the TGI [1] was > 100 µM, the TGI [2] was > 100 µM and the TGI [3] was > 100 µM. For the same compound, the TGI [4] was > 100 µM, the TGI [5] was > 100 µM and the TGI [6] was > 100 µM. For the same compound, the TGI [7] was > 100 µM, the TGI [9] was 42.6 µM and the TGI [10] was > 100 µM.
